# Values of other authors in PMC9992518, “Structural basis of peptide recognition and activation of endothelin receptors” (Nature Communications, 2023).
# Assays:
# [1] = test system: ETAR
# [2] = test system: ETBR; set-up: method as in earlier work; conditions: ETBR activated by ET-3
# [3] = biological target: ETAR; remark: listed apart in the source
# Source text: (§1) S6c bears an identical substitution from K9 to E9 compared with s6b (Fig. 1a). The charge of the ninth residue has been thought to determine the ETR selectivity of s6c over s6b[33], supporting the importa ...
# [4] = biological target: ETBR
# Source text: as §1
# [5] = test system: LgBiT; conditions: NanoBiT complementary peptide
# Source text: NanoLuc Binary Technology (NanoBiT, Promega) is originally a structurally complementary reporter system to evaluate protein-protein interaction in cells. NanoBiT is composed of a large subunit (LgBiT, 18 kDa) and an 11 amino acid complementary peptide (SmBiT, peptide, […]) with low affinity for LgBiT, both of which are connected to two interacting target proteins of interest, respectively. When the two proteins interact, the two subunits assemble into an active enzyme and generate a bright luminescent signal in the presence of a substrate. To improve the homogeneity and stability o ...
substance,measurement,setting,value
"ET-3: endothelin, 21-amino-acid peptide hormone",fold weaker affinity for ETAR,"[1]; ETAR, relative to ET-1 and ET-2",100 fold
same,effect on ET-1-mediated effects upon ETBR activation (in words),[2],can inhibit the ET-1-mediated effects
Sarafotoxin s6c,ETBR selectivity (in words),[1]; from reduced affinity for ETAR compared with s6b,substantial ETBR selectivity
"Succinyl-[Glu^9, Ala^11,15]-ET-1(8-21) [IRL1620]",Ki,[3],1900 nM
same,Ki,[4],0.016 nM
VSGWRLFKKIS [HiBiT],affinity for LgBiT (in words),[5],high affinity
VTGYRLFEEIL [SmBiT],affinity for LgBiT (in words),[5],low affinity
